Laboratory results taken from patent US12560609B2, “Biomarkers predictive of cancer cell response to ML329 or a derivative thereof” (Dana-Farber Cancer Institute, Inc., priority 2018, dated 2026).
Each block holds one compound with its values, some of them ahead of it.

What was measured:
CK2 [1] = target: CK2 (Homo sapiens, UniProt P68400); assay: CK2 activity in vitro, with or without Nqo1; type: biochemical; details: for requirement of Nqo1 for inhibition of CK2 in vitro: FIG. 24E, 24F
CK2 [2] = target: T1, CK2 (Homo sapiens, UniProt P19784+P68400); assay: SAR of ML329 derivatives: NQO1-dependent CK2 inhibitors; type: cell-based; details: FIG. 21
T1 construct: endogenous in cells
T1 sequence (P68400 whole entry): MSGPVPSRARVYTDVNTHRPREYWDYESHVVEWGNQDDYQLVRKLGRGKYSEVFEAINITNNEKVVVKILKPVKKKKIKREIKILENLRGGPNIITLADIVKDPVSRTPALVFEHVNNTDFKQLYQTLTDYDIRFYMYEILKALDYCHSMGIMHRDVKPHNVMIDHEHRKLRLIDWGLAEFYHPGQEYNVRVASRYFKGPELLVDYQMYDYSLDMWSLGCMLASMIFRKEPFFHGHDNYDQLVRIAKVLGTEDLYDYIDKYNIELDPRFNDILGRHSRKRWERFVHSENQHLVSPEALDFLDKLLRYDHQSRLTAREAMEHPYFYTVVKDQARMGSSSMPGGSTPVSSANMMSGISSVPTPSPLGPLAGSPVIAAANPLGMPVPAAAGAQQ
T1 sequence (P19784 whole entry): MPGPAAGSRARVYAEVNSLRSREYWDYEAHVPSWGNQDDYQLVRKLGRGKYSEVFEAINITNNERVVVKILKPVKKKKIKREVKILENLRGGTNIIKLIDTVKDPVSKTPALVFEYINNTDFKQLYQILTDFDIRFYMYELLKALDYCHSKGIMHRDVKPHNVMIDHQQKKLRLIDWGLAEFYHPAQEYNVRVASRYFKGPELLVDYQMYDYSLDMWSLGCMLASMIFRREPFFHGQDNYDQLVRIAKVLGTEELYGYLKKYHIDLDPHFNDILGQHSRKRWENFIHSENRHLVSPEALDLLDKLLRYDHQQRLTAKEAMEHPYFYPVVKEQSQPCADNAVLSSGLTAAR
T1 sequence (P67870 whole entry partner): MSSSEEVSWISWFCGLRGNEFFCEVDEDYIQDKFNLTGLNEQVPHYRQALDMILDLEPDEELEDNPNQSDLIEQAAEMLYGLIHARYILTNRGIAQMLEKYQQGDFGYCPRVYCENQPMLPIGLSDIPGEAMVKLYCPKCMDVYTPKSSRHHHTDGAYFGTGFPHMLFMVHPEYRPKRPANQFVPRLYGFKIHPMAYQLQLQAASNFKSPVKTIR

[3] = system: KEAP1-mutant lung cancer cells; assay: Sensitivity of wild-type and KEAP1-mutated lung cancer cell lines to ML329; type: cell-based; details: sensitive cell lines had IC50<10 μM (FIG. 35B)
Procedure: ML329 (4-[(1,4-dioxo-1,4-dihydronapthalen-2-yl)amino]benzenesulfonamide; […]) is a small molecule that was initially identified as an inhibitor of microphthalmia-associated transcription factor (MITF) (FIGS. 1-6). Briefly, Sk-MEL-5 melanoma cells expressing the promoter of MITF target TRPM1, upstreatm of a luciferase gene, were screened with a library of 331,578 compounds. Secondary screening was performed in two MITF-dependent melanoma cell links (SK-MEL-5 and MALME) and one non-MITF dependent cell line (A375). Candidate hits were tested for their effects on MITF target genes by qPCR. BRD-K45681478 was prioritized for medicinal chemistry. The lead compounds ML329 was used in subsequent studies. […] CK2 is an essential kinase and its reduction/inhibition is lethal (FIG. 11 and FIG. 12). Experiments were performed to determine that ML329 is bioreduced by an enzyme called NQO1, which is preferentially expressed in some cancer types, especially melanoma (FIGS. 13-15). Since ML329 is converted by cancer cells into an active form, it can avoid effects on normal cells. NQO1 is necessary and sufficient for the activity of ML329, thus enabling targeting of CK2 specifically to cancers with high NQO1 expression (FIGS. 16-18). […] Greater than 90% of KEAP1-mutant lung cancers were determined to be sensitive to ML329 (FIG. 20).

[4] = system: CK2alpha and CK2alpha prime; assay: Target identification: bead pull-down from SK-MEL-5 lysate with ML329 competition, mass spectrometry; type: binding
Description: Whole protein lysates were generated from SK-MEL-5 melanoma cells and mixed with either KUC114363 (a derivative of ML329 conjugated to agarose beads) or KUC114363 along with competing amounts of soluble ML329. Mass spectrometry was used to identify proteins that bound KUC114363 whose binding was diminished upon treatment with ML329. […] Kinases found to bound are marked with red circles, where larger circles indicate higher-affinity binding. KINOMEScan image was generated using TREEspot™ Software Tool and reprinted with permission from KINOMEscan®, a division of DiscoveRx Corporation, © DISCOVERX CORPORATION 2010.

Nqo1 = Nqo1 (Homo sapiens, UniProt P15559); assay: Reduction of ML329 by Nqo1 in vitro; type: biochemical; details: FIG. 24D
Sequence of Nqo1 (P15559 whole entry, species assumed): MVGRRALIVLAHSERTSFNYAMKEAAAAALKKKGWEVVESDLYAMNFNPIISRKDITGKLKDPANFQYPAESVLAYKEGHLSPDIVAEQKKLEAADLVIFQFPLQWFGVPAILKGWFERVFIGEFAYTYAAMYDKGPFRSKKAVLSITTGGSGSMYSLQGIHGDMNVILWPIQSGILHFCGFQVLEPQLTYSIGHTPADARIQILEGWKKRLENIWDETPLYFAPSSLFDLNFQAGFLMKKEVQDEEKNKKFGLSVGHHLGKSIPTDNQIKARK

WM266.4 cells = assay: WM266.4 melanoma xenograft, tumor volume; type: in vivo; details: NSG mice xenografted with WM266.4 cells; 10 mg/kg twice daily
MITF = assay: qPCR of MITF mRNA and MITF target genes; type: cell-based; details: FIG. 22
Description: FIG. 26A-FIG. 26H show the results of a small molecule screen to identify regulators of lineage-specific melanoma oncogene MITF. […] SK-MEL-5 cells stably expressing the TRPM1 promoter fused to the luciferase gene were screened with 331,578 compounds. Secondary screens of putative hits including evaluating cytotoxicity in 2 MITF-dependent cell lines (SK-MEL-5, MALME) and 1 MITF-independent cell line (A375M) and evaluation the effect of candidate hits on the mRNA of MITF and target genes. […] BRD-K45681478 was the lead hit, which was modified by structure-function analysis to generate the compound ML329. FIG. 26B show cell number after 48 h treatment of melanoma cell lines (red) compared to non-melanoma cell lines (black) with ML329. […] MITF-dependent cell lines are depicted in green, whereas the MITF-independent cell line is depicted in red.
ML329 (4-[(1,4-dioxo-1,4-dihydronapthalen-2-yl)amino]benzenesulfonamide; KUC114363) is a small molecule that was initially identified as an inhibitor of microphthalmia-associated transcription factor (MITF) (FIGS. 1-6). Briefly, Sk-MEL-5 melanoma cells expressing the promoter of MITF target TRPM1, upstreatm of a luciferase gene, were screened with a library of 331,578 compounds. […] Greater than 90% of KEAP1-mutant lung cancers were determined to be sensitive to ML329 (FIG. 20).

489 cancer cell lines = assay: PRISM viability screen of 489 cancer cell lines; type: cell-based; details: 489 cell lines, FIG. 30
Procedure: Negative odds are associated with sensitivity to ML329 whereas positive odds are associated with insensitivity to ML329.
Strictly Standardized Mean Difference (SSMD) was determined for each cell line. Cell lines with SSMD<2 were filtered out. All cell lines tested had SSMD>2.

Sequence of CK2 (Homo sapiens, UniProt P68400) (P68400 whole entry): as the sequence (P68400 whole entry) above

requirement of Nqo1 for inhibition of CK2 in vitro (CK2 [1]): Nqo1 is not required
Structure (SMILES): O=C(O)c1ccc2c(c1)nc(Nc1cccc(Cl)c1)c1ccncc12 [CX4945, 5-[(3-Chlorophenyl)amino]benzo[c]-2,6-naphthyridine-8-carboxylic acid, reference compound]
potency and selectivity as NQO1-dependent CK2 inhibitor (SAR, relative to ML329) (CK2 [2]): more potent and selective NQO1-dependent CK2 inhibitors

Structure (SMILES): NC(=O)c1ccc(NC2=CC(=O)c3ccccc3C2=O)cc1 [SCAP105463]
potency and selectivity as NQO1-dependent CK2 inhibitor (SAR, relative to ML329) (CK2 [2]): more potent and selective NQO1-dependent CK2 inhibitors

binding to CK2 subunits in vitro [4]: binds to CK2alpha and CK2alpha prime
requirement of Nqo1 for inhibition of CK2 in vitro (CK2 [1]): Nqo1 is required
substrate of Nqo1 in vitro (Nqo1): direct substrate of Nqo1 in vitro
Structure (SMILES): NS(=O)(=O)c1ccc(NC2=CC(=O)c3ccccc3C2=O)cc1 [ML329, 4-[(1,4-dioxo-1,4-dihydronapthalen-2-yl)amino]benzenesulfonamide]
share of KEAP1-mutant lung cancers sensitive to ML329 [3]: Greater than 90%
inhibition of CK2 activity (CK2 [1]; in vitro): inhibits CK2 activity in an ATP-competitive manner
in vivo activity in melanoma (tumor volume) (WM266.4 cells): has in vivo activity in melanoma that requires NRF2/NQO1
effect on MITF mRNA and target gene expression (MITF): suppresses MITF mRNA and target gene expression
selectivity of cytotoxicity across cancer cell lines (489 cancer cell lines): selectively cytotoxic in melanoma cells

Structure (SMILES): NS(=O)(=O)c1cccc(NC2=CC(=O)c3ccccc3C2=O)c1 [SCAP105461]
potency and selectivity as NQO1-dependent CK2 inhibitor (SAR, relative to ML329) (CK2 [2]): more potent and selective NQO1-dependent CK2 inhibitors
